Like-named read-outs stand apart in the source and are kept apart here.
Assays:
CYP3A4 [1] = target: T1, CYP3A4 (Homo sapiens, UniProt P08684); conditions: cited from earlier work
CYP3A5 [2] = target: T2, CYP3A5 (Homo sapiens, UniProt P20815); conditions: cited from earlier work
CYP3A7 = CYP3A7 (Homo sapiens, UniProt P24462); conditions: cited from earlier work
CYP3A5 [3] = target: T2, CYP3A5; conditions: cited from earlier work; remark: listed apart in the source
CYP3A = conditions: cited from earlier work
CYP4503A enzymes = conditions: result in words (Wandel et al.); cited from earlier work
CYP3A4 [4] = target: T1, CYP3A4; conditions: pH 7.4
Protocol: (§1) Midazolam, ^15N3-midazolam, 1′-OH MDZ and 4-OH MDZ were provided by Roche Laboratories. All incubations were performed in duplicate in solutions containing 0.1 M potassium phosphate (pH 7.4) and 20 to 100 μg human liver microsomes or 50 to 100 μg intestinal homogenates or 10 pmol of recombinant CYP3A4 or CYP3A5 (Gentest). Midazolam (final concentration, 8 μM) was added to the diluted tissue preparations, and the mixtures were preincubated at 37° C. for 5 min. We added NADPH (final concentration, 1 mM) to initiate the reaction. Incubation of human liver microsomes lasted for 2 min; incubation of recombinant CYP3A and intestinal samples lasted for 4 min. Reactions were terminated by the addition of 1 mL of ice-cold 0.1 M Na2CO3, pH ˜11. We used NCI GC-MS to measure the quantities of extracted 1′-OH MDZ and 4-OH MDZ (ref. 14). Reaction velocities and product ratios are presented as mean±SD. Statistical comparisons of mean data for different genotypes were performed by using a 2-sided, unpaired t test with unequal variances

CYP3A5 [5] = target: T2, CYP3A5; conditions: pH 7.4
Protocol: as §1

CYP4503A5 = CYP4503A5 (Homo sapiens, UniProt P20815); conditions: cited from earlier work
Sequence of CYP4503A5 (P20815 whole entry): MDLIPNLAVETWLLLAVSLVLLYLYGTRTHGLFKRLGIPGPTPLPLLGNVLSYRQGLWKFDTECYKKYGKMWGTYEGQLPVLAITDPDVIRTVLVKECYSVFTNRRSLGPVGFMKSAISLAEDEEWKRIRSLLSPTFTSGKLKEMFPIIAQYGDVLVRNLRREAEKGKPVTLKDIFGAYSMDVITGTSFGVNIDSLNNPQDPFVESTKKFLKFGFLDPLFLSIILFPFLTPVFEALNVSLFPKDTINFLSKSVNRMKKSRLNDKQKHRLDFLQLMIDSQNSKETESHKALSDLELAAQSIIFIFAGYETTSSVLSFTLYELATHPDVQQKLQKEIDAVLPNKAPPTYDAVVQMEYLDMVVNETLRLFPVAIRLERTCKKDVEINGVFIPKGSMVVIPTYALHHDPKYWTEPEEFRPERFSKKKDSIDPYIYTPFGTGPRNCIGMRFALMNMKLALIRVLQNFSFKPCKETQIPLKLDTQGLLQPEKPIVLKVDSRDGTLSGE

[6] = result in words (Wrighton et al.; Gillam et al.)

T2 sequence (P20815 whole entry): as above
T1 sequence (P08684 whole entry): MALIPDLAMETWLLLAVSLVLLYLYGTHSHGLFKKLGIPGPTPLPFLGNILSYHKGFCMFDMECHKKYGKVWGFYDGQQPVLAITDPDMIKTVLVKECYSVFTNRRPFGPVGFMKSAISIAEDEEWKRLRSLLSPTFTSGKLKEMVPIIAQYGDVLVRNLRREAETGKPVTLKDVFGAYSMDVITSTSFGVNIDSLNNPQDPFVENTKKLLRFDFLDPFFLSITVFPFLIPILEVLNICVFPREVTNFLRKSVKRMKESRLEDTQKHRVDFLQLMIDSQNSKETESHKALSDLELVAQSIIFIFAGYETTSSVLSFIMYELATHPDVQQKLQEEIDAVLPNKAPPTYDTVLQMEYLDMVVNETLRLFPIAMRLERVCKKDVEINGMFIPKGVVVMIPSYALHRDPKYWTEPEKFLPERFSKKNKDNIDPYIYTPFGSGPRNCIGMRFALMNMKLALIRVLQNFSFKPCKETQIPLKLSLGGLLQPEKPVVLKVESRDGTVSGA
Sequence of CYP3A7 (P24462 whole entry): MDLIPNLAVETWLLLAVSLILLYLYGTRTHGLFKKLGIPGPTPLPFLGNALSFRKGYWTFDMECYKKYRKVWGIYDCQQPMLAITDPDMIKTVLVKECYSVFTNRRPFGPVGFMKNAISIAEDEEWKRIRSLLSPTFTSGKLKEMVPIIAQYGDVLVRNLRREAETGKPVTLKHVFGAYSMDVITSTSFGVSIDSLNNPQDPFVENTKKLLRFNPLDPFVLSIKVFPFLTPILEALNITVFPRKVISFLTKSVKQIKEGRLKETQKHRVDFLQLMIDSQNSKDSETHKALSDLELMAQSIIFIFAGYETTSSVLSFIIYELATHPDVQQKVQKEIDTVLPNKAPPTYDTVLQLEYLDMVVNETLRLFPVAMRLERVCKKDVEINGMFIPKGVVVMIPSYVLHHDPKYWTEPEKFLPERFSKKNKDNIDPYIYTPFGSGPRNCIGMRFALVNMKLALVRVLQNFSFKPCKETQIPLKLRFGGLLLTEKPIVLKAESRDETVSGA

NS(=O)(=O)Cc1noc2ccccc12 [Zonisamide]
CYP isoforms expressed in cells 3A4 (CYP3A4 [1]): +++
CYP isoforms expressed in cells 3A5 (CYP3A5 [2]): +
CYP isoforms expressed in cells 3A7 (CYP3A7): ++

C#C[C@]1(O)CC[C@H]2[C@@H]3CCc4cc(O)ccc4[C@H]3CC[C@@]21C [17α-ethinyl-estradiol]
CYP3A5 catalytic activity towards substrate (CYP3A5 [3]; [6]): No CYP3A5 catalytic activity

CN1C(=O)CN=C(c2ccccc2)c2cc(Cl)ccc21 [Diazepam]
Catalytic activity in human liver microsomes Child (%) (CYP3A): 140 (3-12 mo) %
Catalytic activity in human liver microsomes adult (%) (CYP3A): 100%
Catalytic activity in human liver microsomes fetus (%) (CYP3A): <5%

aflatoxins
CYP3A5 catalytic activity towards substrate (CYP3A5 [3]): No CYP3A5 catalytic activity

COc1ccc2c(c1)[C@]13CCCC[C@@H]1[C@H](C2)N(C)CC3 [Dextromethorphan]
Catalytic activity in human liver microsomes adult (%) (CYP3A): 100%
Catalytic activity in human liver microsomes fetus (%) (CYP3A): 30%

C[C@]12CCC(=O)C=C1CC[C@@H]1[C@@H]2[C@@H](O)C[C@@]2(C)[C@H]1CC[C@]2(O)C(=O)CO [Cortisol]
CYP isoforms expressed in cells 3A4 (CYP3A4 [1]): +++
CYP isoforms expressed in cells 3A5 (CYP3A5 [2]): ++
CYP isoforms expressed in cells 3A7 (CYP3A7): −

NC(=O)N1c2ccccc2C=Cc2ccccc21 [Carbamazepine]
CYP isoforms expressed in cells 3A4 (CYP3A4 [1]): +++
CYP isoforms expressed in cells 3A5 (CYP3A5 [2]): ++
CYP isoforms expressed in cells 3A7 (CYP3A7): +
Catalytic activity in human liver microsomes adult (CYP3A; adult, carbamazepine metabolism, result in words): Present
Catalytic activity in human liver microsomes fetus (CYP3A; fetus, CBZ-E formation (?), result in words): CBZ-E

CCOC(=O)C1=C(C)NC(C)=C(C(=O)OC)C1c1cccc([N+](=O)[O-])c1 (centres unmarked) [nitrendipine]
effect on liver microsomal hydroxylation of midazolam (CYP4503A enzymes): inhibits

CCOc1ccc2c3c1O[C@H]1[C@@H](O)C=C[C@H]4[C@@H](C2)N(C)CC[C@@]341 [Ethylmorphine]
CYP isoforms expressed in cells 3A4 (CYP3A4 [1]): +
CYP isoforms expressed in cells 3A5 (CYP3A5 [2]): ++
Catalytic activity in human liver microsomes adult (%) (CYP3A; adult, relative to adult rate = 100%): 100%
Catalytic activity in human liver microsomes fetus (%) (CYP3A; fetus, relative to adult rate = 100%): 100%
CYP3A5 catalytic activity towards substrate (CYP3A5 [3]; [6]): considerable catalytic activity

C[C@]12CC[C@H]3[C@@H](CCC4=CC(=O)CC[C@@]43C)[C@@H]1CC[C@@H]2O [Testosterone]
CYP isoforms expressed in cells 3A4 (CYP3A4 [1]): +++
CYP isoforms expressed in cells 3A5 (CYP3A5 [2]): ++
Catalytic activity in human liver microsomes newborn (%) (CYP3A): 30-40%

CC(=O)[C@H]1CC[C@H]2[C@@H]3CCC4=CC(=O)CC[C@]4(C)[C@H]3CC[C@]12C [Progesterone]
CYP isoforms expressed in cells 3A4 (CYP3A4 [1]): +++
CYP isoforms expressed in cells 3A5 (CYP3A5 [2]; 6β-hydroxylation): ++

Cc1ncc2n1-c1ccc(Cl)cc1C(c1ccccc1F)=NC2 [Midazolam]
ratio of 1′-OH MDZ to 4-OH MDZ (CYP3A4 [4]): 5.5
ratio of 1′-OH MDZ to 4-OH MDZ (CYP3A5 [5]): 16.1
CYP isoforms expressed in cells 3A5 (CYP3A5 [2]): +++
formation rate of 1-hydroxy-midazolam for CYP3A5 versus CYP3A4 (CYP3A5 [3]): considerably higher
rate of formation of 4-hydroxy-midazolam with CYP3A4 and CYP3A5 (CYP3A5 [3]): similar
alpha- to 4-hydroxylation of midazolam, CYP4503A5 versus CYP4503A3 or CYP4503A4 (CYP4503A5): far greater
increase of midazolam metabolism with CYP4503A5 expression (CYP4503A5): 2.7

aflatoxin B1
8,9-epoxidation step (activation step) by CYP3A5 (CYP3A5 [3]): efficiently catalyzes
rate of 3α-hydroxylation (inactivation step) by CYP3A5 relative to CYP3A4 (CYP3A5 [3]): approximately 1%

C[C@]12CCC(=O)CC1CC[C@@H]1[C@@H]2CC[C@]2(C)C(=O)CC[C@@H]12 (some centres unmarked) [Androstanedione]
CYP isoforms expressed in cells 3A4 (CYP3A4 [1]): +++
CYP isoforms expressed in cells 3A5 (CYP3A5 [2]): ++
CYP isoforms expressed in cells 3A7 (CYP3A7): ++
